According to patent US6635628B2, “Methods of administering camptothecin compounds for the treatment of cancer with reduced side effects” (The George Washington University, priority 1998, dated 2003):

Assays:
topoisomerase I = target: T1, topoisomerase I (Homo sapiens, UniProt P11387); details: cited from earlier work
T1 sequence (P11387 1-765): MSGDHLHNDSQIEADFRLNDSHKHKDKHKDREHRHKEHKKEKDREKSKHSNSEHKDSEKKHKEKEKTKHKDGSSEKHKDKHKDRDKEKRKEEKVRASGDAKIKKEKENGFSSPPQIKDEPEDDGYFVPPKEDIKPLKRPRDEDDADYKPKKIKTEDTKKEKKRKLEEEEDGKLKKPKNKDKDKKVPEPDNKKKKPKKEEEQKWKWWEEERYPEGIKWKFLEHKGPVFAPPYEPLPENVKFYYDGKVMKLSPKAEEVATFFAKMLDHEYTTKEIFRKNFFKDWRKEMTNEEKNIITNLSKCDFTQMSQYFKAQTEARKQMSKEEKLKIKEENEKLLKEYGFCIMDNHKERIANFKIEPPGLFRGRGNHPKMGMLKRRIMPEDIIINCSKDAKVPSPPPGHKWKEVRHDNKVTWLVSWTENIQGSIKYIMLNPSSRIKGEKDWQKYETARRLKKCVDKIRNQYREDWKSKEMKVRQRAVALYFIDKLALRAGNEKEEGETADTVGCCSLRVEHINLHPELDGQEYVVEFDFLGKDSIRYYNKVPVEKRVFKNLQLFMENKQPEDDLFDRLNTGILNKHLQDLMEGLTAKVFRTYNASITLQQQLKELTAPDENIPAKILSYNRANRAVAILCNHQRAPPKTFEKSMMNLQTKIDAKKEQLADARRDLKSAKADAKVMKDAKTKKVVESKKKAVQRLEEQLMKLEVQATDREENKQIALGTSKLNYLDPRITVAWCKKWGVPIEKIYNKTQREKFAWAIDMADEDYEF

[1] = type: physicochemical; details: 1,000-molecular weight cut-off membrane
From the text: Monomers were separated from micellar aggregates by ultrafiltration through a 1000-molecular weight cut-off membrane (YM1) as described in Materials and Methods. Values are the monomeric forms of the indicated metabolites, expressed as a percentage (%) of the concentration of the initial solution before ultrafiltration. Comparison between TCA and control was estimated by Mann-Whitney test. […] Abbreviations used: CPT lactone (CPT lact.); CPT carboxylate (CPT carb.); SN-38 lactone (SN lact.); and SN-38 carboxylate (SN carb.).

[2] = tested on: intestinal cells from whole small-intestine; assay: Uptake of 14C-labeled CPT-11 and SN-38 by intestinal cells, regions combined or not distinguished (TCA, pH, bicarbonate effects)
Protocol: By adding the drugs to Hank's solution containing intestinal cells from whole small-intestine, uptake studies were performed.
Intestinal cells were isolated as previously described (28, 29). Briefly, male hamsters were anesthetized with sodium pentobarbital (Nembutol 70 mg/kg body weight). The entire intestine was removed. The intestinal lumen was washed with 37° C. Hank's solution. Sacs of the ileum (12.5 cm from cecum) and jejunum (remaining small intestine) were rinsed, as well as the intestinal sacs of the anal site of small intestine (12.5 cm from cecum) and oral site (the other small intestine). The sacs were rinsed with oxygenated buffer solution containing sodium citrate (96 mM NaCl, 1.5 mM KCl, 5.6 mM KH2PO4, 27 mM sodium citrate, pH 7.3), and incubated for 10 min in the same buffer at 37° C. The sacs were then emptied, filled with oxygenated buffer solution containing EDTA (140 mM NaCl, 16 mM Na2HPO4, 2 mM EDTA, 0.5 mM dithiothreitol, pH 7.3), incubated for 10 min at 37° C. Then each sac was placed onto a petri dish and gently vortexed for 1 min. The buffer containing intestinal cells was recovered in 50 mL of Hanks' solution, washed twice and adjusted at 10^6 cells/ml in Hanks' medium (cellular stock solution containing 0.5% bovine serum albumin, pH 7.4).
The cellular suspension of 0.95 ml was incubated for 15 min in a 37° C. water bath with stirring. Uptake was started by the addition of 0.05 ml PBS (at pH 3 or 9) containing labeled SN-38 or CPT-11 at 37° C. At various time intervals, 100 μL, sample aliquots were diluted into 3 mL of Hank's medium at 4° C. to stop the uptake. The stop solution containing the cells was filtered through a glass microfiber filter (Glass Fiber Filter Circles G4, Fisherbrand, Pa.) under vacuum (20 psi). The cells were washed once with 5 mL of 0.5% bovine serum albumin-containing Hanks' medium (4° C.) and once with 20 mL of Hanks' solution (4° C.). The filters were placed in a vial containing 4 mL of scintillation liquid (Ultra Gold, Packard, Conn.) and the radioactivity was counted in a β scintillation counter (LS3801, Beckman, Md.).
The effect of the metabolic inhibitor, 2,4 dinitrophenol (1 mM), was studied by adding this agent to the cells 3 min prior to either ^14C-CPT-11 or ^14C-SN-38 (2 μM). The effect of 20 mM of taurocholic acid (TCA) on the uptake of both CPT-11 and SN-38 was investigated following overnight incubation of ^14C-CPT-11 (20 μM) and ^14C-SN-38 (2 μM) in Hank's solution, at pH 7.4 and in the presence and absence of TCA. The effect of 200 μM of DNP-SG or SN-38-Glu was also studied by adding these agents to the cell preparation 7 min prior to either ^14C-CPT-11 (20 μM) and ^14C-SN-38 (2 μM).
The effect of physiologic pH on the initial intestinal uptake rate of CPT-11 and SN-38 was investigated following overnight incubation of ^14C-CPT-11 (20 μM) and ^14C-SN-38 (2 μM) in phosphate buffered saline at pH 6.2, 6.8, 7.4 and 8, respectively.
The initial rate of uptake of CPT-11 or SN-38 was derived from the linear regression analysis of the respective regression line obtained from the plot of the uptake as a function of time. The initial rates of uptake were plotted against the corresponding concentration. The data were fitted by least-squares nonlinear regression analysis (SigmaStat, Jandel Scientific, CA), using the equation V=(Vmax·S)/(Km+S)+Kd·S where V represents the initial rate of uptake. Vmax is the maximum rate of uptake, Km is the apparent Michaelis constant, Kd is the rate of diffusion and S is the concentration of CPT-11 or SN-38.

[3] = bile of two men treated by cisplatin who received CPT-11 intravenously; cited from earlier work
HT29 cells [4] = assay: Initial uptake rate of [14C]SN-38 by HT29 cells as a function of pH; type: in vitro ADME
Protocol: The uptake study was initiated by adding the compounds to Hanks' solution containing HT29 cells. The comparative initial rate of uptake as function of pH was analyzed by Kruskal-Wallis test (p<0.001) and Dunn's method (*p<0.05).
Uptake of ^14C-labeled CPT-11 and SN-38 was measured by rapid vacuum filtration assay (28, 29).

[5] = cited from earlier work
HT29 cells [6] = assay: Cytotoxicity assay (MTT, mitochondrial dehydrogenase activity) in HT29 cells; type: cell-based; details: 0.4 μM SN-38; 24 h exposure, 24 h drug-free; pH 6.2, 6.8, 7.4, 8.0
Protocol: Rapid colorimetric assay for mitochondrial dehydrogenase activity was modified and used for the estimation of cytotoxicity of SN-38 (Mosmann, 1983). […] After 24 h-exposure, the cells were washed twice, and subjected to a drug-free incubation for 24 h. Then, the cells were incubated with 0.5 mg/ml 3-(4,5-dimethylthiazol-2-yl)-2,5-diphenyl-tetrazolium bromide (MTT) for 4 h, and the blue formazan crystals were solubilized by addition of 10% n-dodecylsulfate sodium salt (SDS) in 0.1N HCl and overnight incubation. The formation of the blue formazan compound is spectrophotometrically determined at 560 nm (Ultraspec 4050, LKB, Bromma, Sweden).

[7] = rat; 24 h after IV injection of 14C-SN-38; cited from earlier work
Solubility in water = type: physicochemical

Compound	topoisomerase I-inhibitory activity (topoisomerase I)	effect of TCA on % monomer concentration / association to TCA micelles [1]	transport mechanism in intestinal cells [2]	saturability of the uptake (predominant component) ([2]; jejunal and ileal cells, SN-38 concentrations lower than 2 μM)	share of the biliary content [3]	initial rate of uptake in HT-29 cells compared with isolated hamster intestinal cells (HT29 cells [4])	uptake rate in HT29 cells as a function of pH (HT29 cells [4]; 2 μM [14C]SN-38, pH 6.2, 6.8, 7.4, 8.0)	share in lactone form at pH 7.4 [5] [%]	initial uptake rate at acidic pH (pH 6.2 and 6.8) versus neutral or alkaline pH (pH 7.4 and 8) [2]	initial uptake rate in the presence of 20 mM TCA ([2]; cells from jejunum and ileum combined, 14C-CPT-11 20 μM, 14C-SN-38 2 μM, pH 7.4, mean±SD, n=5)	decrease of the uptake rate at a pH greater than 6.8 ([2]; pH 6.2)	uptake when HEPES of the Hank's buffer was replaced by sodium bicarbonate ([2]; pH adjusted to greater than 7)	cytotoxicity for HT29 cells as a function of pH (HT29 cells [6])	distribution of radioactivity [7]	solubility in water (Solubility in water)
CCc1c2c(nc3ccc(O)cc13)-c1cc([C@@](O)(CC)C(=O)O)c(CO)c(=O)n1C2 [SN-38 carboxylate]	only minor	did not significantly associate to TCA micelles	actively absorbed	mostly non-saturable											
CCc1c2c(nc3ccc(O)cc13)-c1cc3c(c(=O)n1C2)COC(=O)[C@]3(O)CC [SN-38, 7-ethyl-10-hydroxy-camptothecin]					0.9-3.3%	lower in HT-29 cells than in isolated hamster intestinal cells	significantly greater at pH 6.2 and 6.8, than at pH 7.4 and 8.0	13	several times greater	69.3±12.7 % of control without TCA	around 65%	decreased	significantly higher at pH 6.2 and 6.8 than at pH 7.4 and 8.0	found exclusively in the gastrointestinal tract	poorly soluble in water
